According to patent publication US10975119B2, “Selective cysteine protease inhibitors and uses thereof” (Genesis Technologies Limited, priority 2011, dated 2021):
Structures can show the parent of a compound that is named as a salt. Where two headings read alike, the source gives them in different places.

What was measured:
Type in all cases: biochemical
[1] = molecular target: T1, Caspase-2 (Homo sapiens, UniProt P42575); assay: Caspase-2 inhibitor screening assay (BioVision kit, VDVAD-AFC); settings: for inhibition at 10 µM: read-out: % Inhibition at 10 uM Casp2; for inhibition at 100 µM: read-out: % Inhibition at 100 uM Casp2; for IC50: read-out: IC50 Casp2
T1 construct: mixing the compounds with the respective active caspases; purchased BioVision K152-100
T1 sequence (P42575 170-325 limits assumed): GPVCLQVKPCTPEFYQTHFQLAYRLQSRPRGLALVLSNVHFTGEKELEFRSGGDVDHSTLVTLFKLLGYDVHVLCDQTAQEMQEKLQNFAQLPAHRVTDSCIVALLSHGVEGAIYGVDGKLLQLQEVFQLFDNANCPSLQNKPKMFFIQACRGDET
T1 sequence (P42575 334-452 limits assumed): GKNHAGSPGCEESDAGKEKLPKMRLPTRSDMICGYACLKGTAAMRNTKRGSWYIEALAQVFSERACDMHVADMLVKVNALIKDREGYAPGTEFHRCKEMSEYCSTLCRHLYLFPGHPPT
Method: (§1) The efficacy of an array of compounds as an inhibitor of the activity of Caspases 1 through 10 were assessed by using the respective Caspase Inhibitor Drug Screening Kits (Caspase-1 Catalog #: K151-100, Caspase-2 Catalog #: K152-100, Caspase-3 Catalog #: K153-100, Caspase-4 Catalog #: K154-100, Caspase-5 Catalog #: K155-100, Caspase-6 Catalog #: K156-100, Caspase-7 Catalog #: K157-100, Caspase-8 Catalog #: K158-100, Caspase-9 Catalog #: K159-100, Caspase-10 Catalog #: K160-100, BioVision) following the instructions of the manufacturer. […] Active caspases cleaved their respective synthetic substrates to release free AFC, which was then quantified by fluorometry.
(§2) Briefly, the compounds were first tested at 2 concentrations (10 uM and 100 uM final) to determine if there is a hit. […] Each condition was tested in duplicates. […] For some samples, a smaller range of concentrations was tested depending on the % Inhibition results at 10 uM and 100 uM. Results were summarized in Tables 2, 3, and 4 herein after. Table 2 represents the IC50 values (uM) of the test compounds as inhibitors of the activity of the various caspases.
(§3) (*) RFU (no inhibitor control)—RFU (compound at a specific concentration)
(§4) RFU (no inhibitor control)

[2] = molecular target: T2, Caspase-3 (Homo sapiens, UniProt P42574); assay: Caspase-3 inhibitor screening assay (BioVision kit, DEVD-AFC); settings: for inhibition at 10 µM: read-out: % Inhibition at 10 uM Casp3; for inhibition at 100 µM: read-out: % Inhibition at 100 uM Casp3; for IC50: read-out: IC50 Casp3
T2 construct: mixing the compounds with the respective active caspases; purchased BioVision K153-100
T2 sequence (P42574 29-175 limits assumed): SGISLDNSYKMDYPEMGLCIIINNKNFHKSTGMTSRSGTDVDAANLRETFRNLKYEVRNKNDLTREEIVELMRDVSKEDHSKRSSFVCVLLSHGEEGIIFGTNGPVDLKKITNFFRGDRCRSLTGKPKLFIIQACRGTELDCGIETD
T2 sequence (P42574 176-277 limits assumed): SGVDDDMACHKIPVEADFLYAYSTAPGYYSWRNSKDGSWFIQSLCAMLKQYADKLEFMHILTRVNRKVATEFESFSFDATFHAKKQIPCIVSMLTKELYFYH
Method: as §1, §2, §3, §4

[3] = molecular target: T3, Caspase-4 (Homo sapiens, UniProt P49662); assay: Caspase-4 inhibitor screening assay (BioVision kit, LEVD-AFC); settings: for inhibition at 10 µM: read-out: % Inhibition at 10 uM Casp4; for inhibition at 100 µM: read-out: % Inhibition at 100 uM Casp4; for IC50: read-out: IC50 Casp4
T3 construct: mixing the compounds with the respective active caspases; purchased BioVision K154-100
T3 sequence (P49662 81-270 limits assumed): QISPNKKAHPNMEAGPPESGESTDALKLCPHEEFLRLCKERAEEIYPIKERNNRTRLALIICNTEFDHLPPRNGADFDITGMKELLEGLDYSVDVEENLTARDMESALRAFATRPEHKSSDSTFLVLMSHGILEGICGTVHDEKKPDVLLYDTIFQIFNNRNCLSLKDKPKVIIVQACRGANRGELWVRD
T3 sequence (P49662 290-377 limits assumed): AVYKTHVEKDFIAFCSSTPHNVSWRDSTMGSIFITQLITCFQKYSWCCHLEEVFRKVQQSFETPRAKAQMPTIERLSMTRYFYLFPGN
Method: as §1, §2, §3, §4

[4] = molecular target: T4, Caspase-8 (Homo sapiens, UniProt Q14790); assay: Caspase-8 inhibitor screening assay (BioVision kit, IETD-AFC); settings: for inhibition at 10 µM: read-out: % Inhibition at 10 uM Casp8; for inhibition at 100 µM: read-out: % Inhibition at 100 uM Casp8; for IC50: read-out: IC50 Casp8
T4 construct: mixing the compounds with the respective active caspases; purchased BioVision K158-100
Method: as §1, §2, §3, §4

T4 sequence (Q14790 217-374 limits assumed): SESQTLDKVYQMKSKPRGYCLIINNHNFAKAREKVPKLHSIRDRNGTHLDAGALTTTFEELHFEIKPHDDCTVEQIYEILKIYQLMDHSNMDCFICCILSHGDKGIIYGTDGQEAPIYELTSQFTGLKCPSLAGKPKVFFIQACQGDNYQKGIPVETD
T4 sequence (Q14790 385-479 limits assumed): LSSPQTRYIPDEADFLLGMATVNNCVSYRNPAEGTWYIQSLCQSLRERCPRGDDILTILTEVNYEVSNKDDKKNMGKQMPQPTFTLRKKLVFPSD

Structure (SMILES) | inhibition at 10 µM [1] [%] | inhibition at 100 µM [1] [%] | IC50 [1] [µM] | inhibition at 10 µM [2] [%] | inhibition at 100 µM [2] [%] | IC50 [2] [µM] | inhibition at 10 µM [3] [%] | inhibition at 100 µM [3] [%] | IC50 [3] [µM] | inhibition at 10 µM ([4]; 10 uM) [%] | inhibition at 100 µM ([4]; 100 uM) [%] | IC50 [4] [µM] | change of potency against caspase-3 relative to compound 26 ([2]; replacement of t-Leu at P3 of compound 26) [fold] | % Inhibition at 100 uM Casp8 ([4]; 100 uM) [%] | inhibition at 10 µM [4] [%] | inhibition at 100 µM [4] [%]
CC(C)(C)[C@H](NC(=O)c1ccc2ncccc2n1)C(=O)N1CCCC1C(=O)N[C@H](/C=C/S(C)(=O)=O)CC(=O)O (stereo in doubt) [Compound 8, (1,5-Naphthyridine-2-carbonyl)-t-Leu-Pro-Asp methyl vinyl sulfone] | 3 | 5 | > 100 | 3 | 5 | > 100 | 88 | 100 | 0.63 | 8 | 23 | > 100 |  |  |  | 
CC(C)(C)[C@H](NC(=O)c1ccc2ncccc2c1)C(=O)N1CCCC1C(=O)N[C@H](/C=C/S(C)(=O)=O)CC(=O)O (stereo in doubt) [Compound 10, Quinoline-6-carbonyl-t-Leu-Pro-Asp methyl vinyl sulfone] | 3 | 6 | > 100 | 12 | 16 | > 100 | 91 | 100 | 1.92 | 34 | 94 | 14.7 |  |  |  | 
CS(=O)(=O)/C=C/[C@H](CC(=O)O)NC(=O)C1CCCN1C(=O)[C@@H](NC(=O)[C@H](CC(=O)O)NC(=O)OCc1ccccc1)C1CC1 (stereo in doubt) [Compound 28, Z-Asp-Cyclopropylglycine-Pro-Asp-methyl vinyl sulfone] | 22 | 79 | 30.4 | 91 | 99 | 0.78 | 73 | 100 | 5.22 | 20 | 80 | 27.6 | 7 |  |  | 
CC(C)[C@H](NC(=O)OCc1ccccc1)C(=O)N[C@H](/C=C(\Cl)S(C)(=O)=O)CC(=O)O [Compound 2, Cbz-Val-Asp achlorovinyl methyl vinyl sulfone] | 0 | 0 | > 100 | 1 | 39 | > 100 | 0 | 6 | > 100 | 2 | 49 | > 100 |  | 33 |  | 
CC(C)[C@H](NC(=O)OCc1ccccc1)C(=O)N[C@H](/C=C/S(C)(=O)=O)CC(=O)O [Compound 3, Z-Val-Asp methyl vinyl sulfone] | 0 | 0 | > 100 | 0 | 5 | > 100 | 0 | 2 | > 100 | 0 | 23 | > 100 |  |  |  | 
CS(=O)(=O)/C(Cl)=C/[C@@H](N)CC(=O)O [Compound 4, Asp achlorovinyl methyl vinyl sulfone, Tosyl Salt] | 0 | 0 | > 100 | 4 | 7 | > 100 | 0 | 0 | > 100 |  |  | > 100 |  |  | 6 | 13
